For this assay, the target named is X-box-binding protein 1 (Homo sapiens) (UniProt P17861). Nature of the assay: inhibitors of XBP1 reporter signal, dose response, counter-screen, cell-based (AID 504313).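 Further: CHO cells carrying an XBP1 reporter stimulated with tunicamycin; potency is for inhibition of the tunicamycin-induced reporter signal.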 The following applies: XBP1 reporter cell assay, percent of control.

Calls of active or inactive are those of the source. How the calls were made is not given here.

The values that follow come from PubChem BioAssay AID504313 (Emory University Molecular Libraries Screening Center, 2011).

`Cn1c(=O)c(C(=O)Nc2ncccc2O)c(O)c2ccccc21`: the IC50 was > 10 µM (inactive).
On to `Cc1ccccc1N1CCN(C(=O)c2ccc(Oc3ccc(C(F)(F)F)cn3)cc2)CC1`, for which the IC50 is 2.48 µM.
With `COc1ccccc1-n1cc([C@@H]2C[C@H]3CN(c4ccccc4)C(=O)[C@]34CCCN24)cn1`, the IC50 was 0.74 µM.
`O=C(Nc1ccccc1)Nc1cc(OCC(F)(F)F)cc(OCC(F)(F)F)c1`: the half-inhibitory concentration (IC50) is 3.95 µM.
Then `C=CCn1c(C)cc(C2=NNC(=NCC)SC2)c1C`, with < 0.16 µM (inactive).
With `CCc1ccc(OCc2n[nH]c(=S)n2C(C)CCCC(C)C)cc1` (centres undefined) the entry was “inactive”; with `O=S1(=O)C=C(Sc2nc3cc(Cl)ccc3o2)c2ccccc21`, 4.42 µM.
On to `O=C1/C(=C/c2ccncc2)SC(=S)N1C1CCS(=O)(=O)C1` (centres undefined), for which the IC50 entry was “inactive”.
Regarding `CC(C)Oc1cc(NC(=O)CS(=O)CC(=O)Nc2cccc(C(F)(F)F)c2)c(Cl)cc1Cl` (centres undefined), the IC50 entry is “inactive”.
With `CC(C)(C)C1CCC(C(=O)OCC(=O)c2ccc[nH]2)CC1` (centres undefined) the entry was “inactive”; with `COc1ccc(C(=O)Nc2nnc(-c3ccco3)s2)cc1`, “inactive”.
Consider `COc1ccccc1-c1nnc(NC(=O)c2ccc(S(=O)(=O)N(C)Cc3ccccc3)cc2)o1`, for which the IC50 entry was “inactive”.
Then `CS(=O)(=O)c1ncc(Cl)c(C(=O)Nc2ccc(N3CCOCC3)cc2)n1`, with “inactive”.
Then `COc1ccc(C(C(=O)NC2CCCCC2)N(C(=O)CCl)c2cccc(Cl)c2)cc1` (centres undefined), with “inactive”; and `Cc1ccc2nc(-c3cc(-c4ccccc4)no3)cn2c1`, with > 10 µM (inactive); and `Cc1nc(NC(=O)CSc2nc3cccnc3n2Cc2ccccc2)sc1C`, with > 10 µM (inactive).
Then `CC(C)(C)c1ccc(C2CC2C(=O)N/N=C\c2ccc[nH]2)cc1` (centres undefined), with “inactive”.
As to `CC(C)(C)c1cc(-c2csc(Nc3ccccc3)[n+]2Cc2ccc(C(=O)O)cc2)cc(C(C)(C)C)c1O`, the IC50 result was “inactive”.
Then `CCOC(=O)c1c(-n2c(C)cc(C=C3C(=O)NC(=S)NC3=O)c2C)sc2c1CCCC2`, with “inactive”; and `Cc1cccc(C)c1N1CCN(c2ccc3nnc(C(F)(F)F)n3n2)CC1`, with > 10 µM (inactive); and `COc1ccc(N=c2oc3ccc(OC)cc3cc2-c2nc3ccccc3[nH]2)cc1`, with “inactive”.
Turning to `Cc1cc(C)n(-c2nc(N(c3ccccc3)c3ccccc3)nc(-n3nc(C)cc3C)n2)n1`, the IC50 result was “inactive”.
With `O=S(=O)(C/C(=C/CO)S(=O)(=O)c1ccccc1)c1ccccc1` the figure was 3.44 µM.
Take `Nc1c(S(=O)(=O)c2cccc(Cl)c2)c2nc3ccccc3nc2n1/N=C/c1ccc(O)c(O)c1`: the IC50 was > 10 µM (inactive).
Then `O=S(=O)(Nc1cc(Sc2ncn[nH]2)c(O)c2ccccc12)c1ccccc1`, with “inactive”; and `Cc1nc(COC(=O)c2cc(O)c3ccccc3c2O)cs1`, with > 10 µM (inactive).
With `S=C(Nc1ccccc1)Nc1ccc(OCc2ccc(Cl)cc2Cl)cc1`, the IC50 was 0.19 µM.
With `C=C(C)COc1ccc(-c2[nH]ncc2Oc2ccccc2OCC)c(O)c1`, the IC50 entry was “inactive”.
With `O=C(Nc1ccc([N+](=O)[O-])cc1)Nc1ccc(OC(F)F)c(Cl)c1` the entry was “inactive”.
Then `CC(CNC(=S)Nc1cc(F)cc(F)c1)CSc1ccc(Cl)cc1` (centres undefined), with > 10 µM (inactive).
Then `Cc1cc(/C=N/n2cnnc2)c(C)n1-c1ccc(OCc2ccc(Cl)cc2)cc1`, with 0.56 µM; and `Cc1cccnc1NC(=O)c1c(O)c2ccccc2n(C)c1=O`, with “inactive”; and `COc1ccc(CNc2oc(-c3cccc4ccccc34)nc2C#N)cc1`, with > 10 µM (inactive).
On to `O=C1C(=O)c2ccc(-c3ccccc3)cc2-c2ccccc21`, for which the IC50 was 3.26 µM.
Then `C=C1C(=O)O[C@@H]2C[C@@H](C)[C@@H]3C4OC4C(=O)[C@@]3(C)[C@@H](O)[C@H]12` (some centres undefined), with 4.96 µM; and `Cc1cc(/C=N/n2cnnc2)c(C)n1-c1ccc(OCc2ccc(F)cc2)cc1`, with “inactive”; and `CCCC(NCC(O)COc1ccc(-c2ccccc2)cc1)c1ccccc1` (centres undefined), with “inactive”.
`CC(=O)NCc1ccc(C(=O)CCl)s1`: the IC50 result is “inactive”.
With `CCCCC(CC)Cn1c2nc3ccccc3nc2c2c(=N)oc(C)nc21` (centres undefined) the figure was > 10 µM (inactive); with `COc1cc(CNCc2ccccn2)ccc1OCc1ccc(Cl)cc1Cl`, > 10 µM (inactive); with `Nc1c(C(=O)Nc2ccc(S(=O)(=O)N3CCCC3)cc2)sc2nc3ccc(OC(F)(F)F)cc3cc12`, “inactive”.
In the case of `CCCCC(CC)C(=O)Oc1ccc(O)c(C(C)(C)C)c1` (centres undefined), the IC50 entry was “inactive”.
Then `N#CC1=C(N)N2C(=C(C#N)C1c1cccc(Br)c1)Nc1ccccc12` (centres undefined), with “inactive”; and `C[C@H](NC(=O)c1nc[nH]c1C(=O)N[C@@H](Cc1ccccc1)C(=O)OC(C)(C)C)C(=O)OC(C)(C)C`, with “inactive”.
Turning to `O=C(CN1C(=O)c2ccccc2S1(=O)=O)c1ccc2c(c1)OCCCO2`, the IC50 is 0.37 µM.
Then `CC(C)(C)C(=O)NC(=S)NNC(=O)C(c1ccccc1)c1ccccc1`, with > 10 µM (inactive).
Then `CC(C)(C)c1ccc(OCC(=O)N/N=C/C2CC=CCC2)cc1` (centres undefined), with “inactive”.
Take `COc1ccccc1-c1cc(C(F)(F)F)nc(S(=O)(=O)CCCC(=O)Nc2cccnc2Cl)n1`: the IC50 is > 10 µM (inactive).
On to `COc1cc(/C=C2\COC/C(=C\c3cc(OC)c(OC)c(OC)c3)C2=O)cc(OC)c1OC`, for which the IC50 is 1.39 µM.
With `COC(=O)/C(=C1/Oc2cc(C)oc(=O)c2S1)C(F)(F)F` the figure was 2.94 µM; with `CCCC(=O)N1CCN(c2ccc(NC(=O)c3cc4ccccc4o3)cc2Cl)CC1`, “inactive”; with `CN1/C(=C\C=C\C2=[N+](C)c3ccc4ccccc4c3C2(C)C)C(C)(C)c2ccccc21`, less than 0.16 µM.
Turning to `CCN1C=CC(=C2C(=O)c3ccccc3C2=O)C=C1`, the IC50 result is “inactive”.
Consider `CCCCCCCC(=O)N/N=C/c1ccc(Br)cc1`, for which the IC50 was 4.47 µM.
With `CCOC(=O)C1=C(O)/C(=C/c2ccc(CNC(=O)C(=O)Nc3ccc(C)cc3)o2)N=C1C` the figure was > 10 µM (inactive).
Regarding `CC(C)(C)c1ccc(Oc2ccc(N)cc2)cc1`, the IC50 is less than 0.16 µM.
Then `O=C(COc1ccc(Cl)cc1Cl)Nc1ccccn1`, with “inactive”; and `CC(C)CCN(C(=O)Cc1ccc(Cl)c(Cl)c1)c1c(N)n(Cc2ccccc2)c(=O)[nH]c1=O`, with “inactive”.
Then `CCOC(=O)CN1C(c2ccc(O)cc2)Nc2ccc(Br)cc2C1c1ccccc1` (centres undefined), with > 10 µM (inactive).
